From patent US9682976B2, “Protein kinase C inhibitors and uses thereof” (Rigel Pharmaceuticals, Inc., priority 2012, dated 2017) come the findings set out here.

Molecules are shown by their SMILES.

The test deals with PKC mediated IL-2 production. In words: IL-2 ELISA, human primary T cell, anti CD3+CD28+. The format is cell-based. To be noted: Homo sapiens, T-cell, 24 h, human primary T cells stimulated with αCD3 and αCD28, 24 hours. Put shortly:
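Human peripheral blood T cells, pre-expanded with αCD3/αCD28 and IL-2 and then washed free of IL-2, were pre-incubated with compound for 1 h at 37° C. They were then stimulated on plates coated with […] αCD3 and 5 μg/ml αCD28, or with 0.5 ng/ml PMA plus 0.1 uM ionomycin in the counter assay. IL-2 in supernatants was measured by ELISA after 24 h.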
As a reminder, the EC50 is the concentration giving half of the maximal effect. Lower therefore signals higher potency in that assay. `CC1(C)C[C@H](Nc2nc(Nc3ccc(F)c(-n4nnnc4C4CC4)c3)ncc2F)C[C@@H]2CCCN21` [Compound 143, N2-(3-(5-cyclopropyl-1H-tetrazol-1-yl)-4-fluorophenyl)-N4-((7R,8aS)-5,5-dimethyloctahydroindolizin-7-yl)-5-fluoropyrimidine-2,4-diamine] gave an EC50 below 100 nM.

With `CC1(C)C[C@H](Nc2nc(Nc3cc(-n4nnnc4C4CC4)ccc3F)ncc2F)C[C@@H]2CCCN21` [Compound 144, N2-(5-(5-cyclopropyl-1H-tetrazol-1-yl)-2-fluorophenyl)-N4-((7R,8aS)-5,5-dimethyloctahydroindolizin-7-yl)-5-fluoropyrimidine-2,4-diamine], the EC50 is below 100 nM.

In turn, `CC1(C)C[C@H](Nc2nc(Nc3ccc(Cl)c(-n4nnnc4C4CC4)c3)ncc2F)C[C@@H]2CCCN21` [Compound 145, N2-(4-chloro-3-(5-cyclopropyl-1H-tetrazol-1-yl)phenyl)-N4-((7R,8aS)-5,5-dimethyloctahydroindolizin-7-yl)-5-fluoropyrimidine-2,4-diamine] came in with an EC50 below 100 nM.

`CC1(C)C[C@H](Nc2nc(Nc3cc(-n4cnnn4)c(C4CC4)cc3F)ncc2Cl)C[C@@H]2CCCN21` [Compound 146, 5-chloro-N2-(4-cyclopropyl-2-fluoro-5-(1H-tetrazol-1-yl)phenyl)-N4-((7R,8aS)-5,5-dimethyloctahydroindolizin-7-yl)pyrimidine-2,4-diamine] returned an EC50 below 100 nM.

`Cc1ccc(Nc2ncc(Cl)c(N[C@@H]3C[C@@H]4CCCN4C(C)(C)C3)n2)cc1-n1cnnn1` [Compound 147, 5-chloro-N4-((7R,8aS)-5,5-dimethyloctahydroindolizin-7-yl)-N2-(4-methyl-3-(1H-tetrazol-1-yl)phenyl)pyrimidine-2,4-diamine] returned an EC50 below 100 nM.

For `Cn1nnn(-c2cc(Nc3ncc(Cl)c(N[C@@H]4C[C@@H]5CCCN5C(C)(C)C4)n3)c(F)cc2C2CC2)c1=O` [Compound 148, 1-(5-((5-chloro-4-(((7R,8aS)-5,5-dimethyloctahydroindolizin-7-yl)amino)pyrimidin-2-yl)amino)-2-cyclopropyl-4-fluorophenyl)-4-methyl-1,4-dihydro-5H-tetrazol-5-one], the EC50 is below 100 nM.

With `Cc1nnnn1-c1cc(Nc2ncc(Cl)c(N[C@@H]3C[C@@H]4CCCN4C(C)(C)C3)n2)ccc1F` [Compound 149, 5-chloro-N4-((7R,8aS)-5,5-dimethyloctahydroindolizin-7-yl)-N2-(4-fluoro-3-(5-methyl-1H-tetrazol-1-yl)phenyl)pyrimidine-2,4-diamine], the 50% effective concentration (EC50) is below 100 nM.

On to `Cc1nnnn1-c1ccc(F)c(Nc2ncc(Cl)c(N[C@@H]3C[C@@H]4CCCN4C(C)(C)C3)n2)c1` [Compound 150, 5-chloro-N4-((7R,8aS)-5,5-dimethyloctahydroindolizin-7-yl)-N2-(2-fluoro-5-(5-methyl-1H-tetrazol-1-yl)phenyl)pyrimidine-2,4-diamine], for which the EC50 is below 100 nM.

Compound `COc1ccc(Nc2ncc(Cl)c(N[C@@H]3C[C@@H]4CCCN4C(C)(C)C3)n2)cc1-n1nnnc1C` [Compound 151, 5-chloro-N4-((7R,8aS)-5,5-dimethyloctahydroindolizin-7-yl)-N2-(4-methoxy-3-(5-methyl-1H-tetrazol-1-yl)phenyl)pyrimidine-2,4-diamine] registered an EC50 below 100 nM.

Consider `COc1cc(Nc2ncc(Cl)c(N[C@@H]3C[C@@H]4CCCN4C(C)(C)C3)n2)cc(-n2nnnc2C)c1` [Compound 152, 5-chloro-N4-((7R,8aS)-5,5-dimethyloctahydroindolizin-7-yl)-N2-(3-methoxy-5-(5-methyl-1H-tetrazol-1-yl)phenyl)pyrimidine-2,4-diamine], for which the EC50 was below 100 nM.

`CC1(C)C[C@H](Nc2nc(Nc3cccc(C#N)c3)ncc2Cl)C[C@@H]2CCCN21` [Compound 153, 3-((5-chloro-4-(((7R,8aS)-5,5-dimethyloctahydroindolizin-7-yl)amino)pyrimidin-2-yl)amino)benzonitrile] had an EC50 of 100 to 500 nM.

In the case of `Cc1ccc(Nc2ncc(Cl)c(N[C@@H]3C[C@@H]4CCCN4C(C)(C)C3)n2)cc1C#N` [Compound 154, 5-((5-chloro-4-(((7R,8aS)-5,5-dimethyloctahydroindolizin-7-yl)amino)pyrimidin-2-yl)amino)-2-methylbenzonitrile], the concentration giving a half-maximal response (EC50) is below 100 nM.

In the case of `CC1(C)C[C@H](Nc2nc(Nc3ccc(C4CC4)c(C#N)c3)ncc2Cl)C[C@@H]2CCCN21` [Compound 155, 5-((5-chloro-4-(((7R,8aS)-5,5-dimethyloctahydroindolizin-7-yl)amino)pyrimidin-2-yl)amino)-2-cyclopropylbenzonitrile], the EC50 was below 100 nM.

As to `COc1cc(Nc2ncc(F)c(N[C@@H]3C[C@@H]4CCCN4C(C)(C)C3)n2)cc(OC)c1OC` [Compound 156, N4-((7R,8aS)-5,5-dimethyloctahydroindolizin-7-yl)-5-fluoro-N2-(3,4,5-trimethoxyphenyl)pyrimidine-2,4-diamine], the EC50 was in the range of 1000 to 10000 nM.

The compound `CC1(C)Oc2ccc(Nc3ncc(F)c(N[C@@H]4C[C@@H]5CCCN5C(C)(C)C4)n3)cc2O1` [Compound 157, N2-(2,2-dimethylbenzo[d][1,3]dioxol-5-yl)-N4-((7R,8aS)-5,5-dimethyloctahydroindolizin-7-yl)-5-fluoropyrimidine-2,4-diamine] had an EC50 of 1000 to 10000 nM.

The compound `COCCOc1cc(F)c(Nc2ncc(F)c(N[C@@H]3C[C@@H]4CCCN4C(C)(C)C3)n2)cc1-n1nnn(C)c1=O` [Compound 158, 1-(5-((4-(((7R,8aS)-5,5-dimethyloctahydroindolizin-7-yl)amino)-5-fluoropyrimidin-2-yl)amino)-4-fluoro-2-(2-methoxyethoxy)phenyl)-4-methyl-1,4-dihydro-5H-tetrazol-5-one] returned an EC50 of 100 to 500 nM.

Compound `Cn1nnn(-c2cc(Nc3ncc(F)c(N[C@@H]4C[C@@H]5CCCN5C(C)(C)C4)n3)c(F)cc2OCC2(C)COC2)c1=O` [Compound 159, 1-(5-((4-(((7R,8aS)-5,5-dimethyloctahydroindolizin-7-yl)amino)-5-fluoropyrimidin-2-yl)amino)-4-fluoro-2-((3-methyloxetan-3-yl)methoxy)phenyl)-4-methyl-1,4-dihydro-5H-tetrazol-5-one] returned an EC50 of 100 to 500 nM.

`COCCOc1ccc(Nc2ncc(F)c(N[C@@H]3C[C@@H]4CCCN4C(C)(C)C3)n2)c(F)c1OCCOC` [Compound 160, N4-((7R,8aS)-5,5-dimethyloctahydroindolizin-7-yl)-5-fluoro-N2-(2-fluoro-3,4-bis(2-methoxyethoxy)phenyl)pyrimidine-2,4-diamine] displayed an EC50 of 1000 to 10000 nM.

The compound `COc1cc(Nc2ncc(F)c(N[C@@H]3C[C@@H]4CCCN4C(C)(C)C3)n2)cc(OC)c1` [Compound 161, N2-(3,5-dimethoxyphenyl)-N4-((7R,8aS)-5,5-dimethyloctahydroindolizin-7-yl)-5-fluoropyrimidine-2,4-diamine] came in with an EC50 of 500 to 1000 nM.

The compound `COc1cc(Nc2ncc(Cl)c(N[C@@H]3C[C@@H]4CCCN4C(C)(C)C3)n2)cc(OC)c1` [Compound 162, 5-chloro-N2-(3,5-dimethoxyphenyl)-N4-((7R,8aS)-5,5-dimethyloctahydroindolizin-7-yl)pyrimidine-2,4-diamine] gave an EC50 of 100 to 500 nM.

`CC1(C)C[C@H](Nc2nc(Nc3ccc(F)c(-n4nnnc4C4CC4)c3)ncc2Cl)C[C@@H]2CCCN21` [Compound 163, 5-chloro-N2-(3-(5-cyclopropyl-1H-tetrazol-1-yl)-4-fluorophenyl)-N4-((7R,8aS)-5,5-dimethyloctahydroindolizin-7-yl)pyrimidine-2,4-diamine] registered a 50% effective concentration (EC50) below 100 nM.

Take `CC1(C)C[C@H](Nc2nc(Nc3cc(-n4nnnc4C4CC4)ccc3F)ncc2Cl)C[C@@H]2CCCN21` [Compound 164, 5-chloro-N2-(5-(5-cyclopropyl-1H-tetrazol-1-yl)-2-fluorophenyl)-N4-((7R,8aS)-5,5-dimethyloctahydroindolizin-7-yl)pyrimidine-2,4-diamine]: the EC50 is below 100 nM.

Take `Cn1nnn(-c2cc(Nc3ncc(F)c(N[C@@H]4C[C@@H]5CCCN5C(C)(C)C4)n3)c(F)cc2OCC2(CO)COC2)c1=O` [Compound 165, 1-(5-((4-(((7R,8aS)-5,5-dimethyloctahydroindolizin-7-yl)amino)-5-fluoropyrimidin-2-yl)amino)-4-fluoro-2-((3-(hydroxymethyl)oxetan-3-yl)methoxy)phenyl)-4-methyl-1,4-dihydro-5H-tetrazol-5-one]: the EC50 was 500 to 1000 nM.

For the compound `Cn1nnn(-c2cc(Nc3ncc(F)c(N[C@@H]4C[C@@H]5CCCN5C(C)(C)C4)n3)c(F)cc2OCC2COC2)c1=O` [Compound 166, 1-(5-((4-(((7R,8aS)-5,5-dimethyloctahydroindolizin-7-yl)amino)-5-fluoropyrimidin-2-yl)amino)-4-fluoro-2-(oxetan-3-ylmethoxy)phenyl)-4-methyl-1,4-dihydro-5H-tetrazol-5-one], the EC50 fell in the range of 100 to 500 nM.

`Cn1nnn(-c2cc(Nc3ncc(F)c(N[C@@H]4C[C@@H]5CCCN5C(C)(C)C4)n3)c(F)cc2OCC2CCO2)c1=O` (stereo partly drawn) [Compound 167, 1-(5-((4-(((7R,8aS)-5,5-dimethyloctahydroindolizin-7-yl)amino)-5-fluoropyrimidin-2-yl)amino)-4-fluoro-2-(oxetan-2-ylmethoxy)phenyl)-4-methyl-1,4-dihydro-5H-tetrazol-5-one] returned an EC50 of 100 to 500 nM.

Regarding `CC1(C)C[C@H](Nc2nc(Nc3ccc(O)c(C#N)c3)ncc2F)C[C@@H]2CCCN21` [Compound 168, 5-((4-(((7R,8aS)-5,5-dimethyloctahydroindolizin-7-yl)amino)-5-fluoropyrimidin-2-yl)amino)-2-hydroxybenzonitrile], the EC50 is 1000 to 10000 nM.

In turn, `Cn1nnn(-c2cc(Nc3ncc(F)c(N[C@@H]4C[C@@H]5CCCN5C(C)(C)C4)n3)c(F)cc2OCC2COCCO2)c1=O` (stereo partly drawn) [Compound 169, 1-(2-((1,4-dioxan-2-yl)methoxy)-5-((4-(((7R,8aS)-5,5-dimethyloctahydroindolizin-7-yl)amino)-5-fluoropyrimidin-2-yl)amino)-4-fluorophenyl)-4-methyl-1,4-dihydro-5H-tetrazol-5-one] yielded an EC50 of 1000 to 10000 nM.
